Source: ChEMBL document CHEMBL4011597, “Synthesis, screening and docking of fused pyrano[3,2-d]pyrimidine derivatives as xanthine oxidase inhibitor” (Eur J Med Chem, 2017)

Target: T1, Xanthine dehydrogenase/oxidase (Bos taurus, UniProt P80457)
Assay: Inhibition of bovine xanthine oxidase assessed as reduction in uric acid formation at 100 uM using xanthine as substrate pretreated for 5 mins followed by substrate addition measured by UV-vis spectrophotometric method relative to control
Conditions: cattle

T1 sequence (P80457 whole entry): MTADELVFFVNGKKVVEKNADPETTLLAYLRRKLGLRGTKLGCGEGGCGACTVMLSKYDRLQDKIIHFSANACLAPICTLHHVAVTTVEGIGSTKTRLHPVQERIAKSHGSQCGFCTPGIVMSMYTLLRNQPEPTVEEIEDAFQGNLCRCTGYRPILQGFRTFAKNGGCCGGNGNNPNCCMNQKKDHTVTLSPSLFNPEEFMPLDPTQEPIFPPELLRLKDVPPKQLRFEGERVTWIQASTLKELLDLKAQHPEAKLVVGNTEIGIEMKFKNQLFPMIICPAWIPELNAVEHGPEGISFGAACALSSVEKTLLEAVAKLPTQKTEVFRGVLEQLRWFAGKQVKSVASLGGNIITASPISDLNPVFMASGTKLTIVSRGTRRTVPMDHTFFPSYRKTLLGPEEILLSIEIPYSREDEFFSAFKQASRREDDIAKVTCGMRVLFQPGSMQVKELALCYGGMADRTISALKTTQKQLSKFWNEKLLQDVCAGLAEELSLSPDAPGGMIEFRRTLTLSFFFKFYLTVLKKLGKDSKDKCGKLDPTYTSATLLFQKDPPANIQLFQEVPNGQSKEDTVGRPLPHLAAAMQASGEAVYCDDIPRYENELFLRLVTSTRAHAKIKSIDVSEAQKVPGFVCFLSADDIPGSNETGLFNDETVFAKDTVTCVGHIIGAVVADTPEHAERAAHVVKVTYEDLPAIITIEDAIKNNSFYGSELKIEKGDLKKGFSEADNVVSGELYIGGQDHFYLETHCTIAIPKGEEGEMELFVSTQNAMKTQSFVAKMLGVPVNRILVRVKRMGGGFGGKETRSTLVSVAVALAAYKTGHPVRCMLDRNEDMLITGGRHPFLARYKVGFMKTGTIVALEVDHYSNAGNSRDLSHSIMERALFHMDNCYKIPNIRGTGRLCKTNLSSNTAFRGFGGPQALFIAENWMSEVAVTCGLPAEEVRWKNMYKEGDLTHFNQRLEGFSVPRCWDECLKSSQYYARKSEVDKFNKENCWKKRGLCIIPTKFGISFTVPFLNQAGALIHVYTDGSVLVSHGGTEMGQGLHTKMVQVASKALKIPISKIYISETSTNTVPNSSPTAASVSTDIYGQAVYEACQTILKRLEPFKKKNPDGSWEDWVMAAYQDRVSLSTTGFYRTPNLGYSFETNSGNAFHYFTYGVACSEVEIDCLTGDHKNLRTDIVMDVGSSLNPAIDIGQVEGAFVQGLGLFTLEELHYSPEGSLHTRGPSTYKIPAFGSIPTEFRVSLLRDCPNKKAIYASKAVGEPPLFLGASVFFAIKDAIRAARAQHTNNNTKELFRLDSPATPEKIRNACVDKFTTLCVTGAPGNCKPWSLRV

SMILES	inhibition at 100 µM [%]
COc1ccc(Nc2ncnc3c2C(c2ccc(O)c(O)c2)c2ccc4ccccc4c2O3)cc1 (centres undefined)	36.5
COc1ccc(Nc2ncnc3c2C(c2cc(OC)c(OC)c(OC)c2)c2ccc4ccccc4c2O3)cc1 (centres undefined)	25.2
COc1ccc(Nc2ncnc3c2C(c2ccccc2OC)c2ccc4ccccc4c2O3)cc1 (centres undefined)	30
COc1ccc(Nc2ncnc3c2C(c2cccc(C)c2)c2c(c(=O)oc4ccccc24)O3)cc1 (centres undefined)	78.2
COc1ccc(Nc2ncnc3c2C(c2cc4ccccc4[nH]2)C2=C(CCCC2=O)O3)cc1 (centres undefined)	19.3
COc1ccc(Nc2ncnc3c2C(c2ccc(O)c(O)c2)C2=C(CCCC2=O)O3)cc1 (centres undefined)	93.8
COc1ccc(Nc2ncnc3c2C(c2ccc(OC)cc2)c2c(n[nH]c2C)O3)cc1 (centres undefined)	58.4
COc1ccc(Nc2ncnc3c2C(c2ccc(O)cc2)c2c(ccc4ccccc24)O3)cc1 (centres undefined)	29.1
COc1ccc(Nc2ncnc3c2C(c2ccc(O)c(OC)c2)c2c(n[nH]c2C)O3)cc1 (centres undefined)	65.5
COc1ccc(Nc2ncnc3c2C(c2cc(OC)c(OC)c(OC)c2)c2c(c(=O)oc4ccccc24)O3)cc1 (centres undefined)	74.5
COc1ccc(Nc2ncnc3c2C(c2cccs2)C2=C(CCCC2=O)O3)cc1 (centres undefined)	59.1
COc1ccc(Nc2ncnc3c2C(c2cccc([N+](=O)[O-])c2)c2c(c(=O)oc4ccccc24)O3)cc1 (centres undefined)	63.6
COc1ccc(Nc2ncnc3c2C(c2cccc([N+](=O)[O-])c2)C2=C(CCCC2=O)O3)cc1 (centres undefined)	64.2
COc1ccc(Nc2ncnc3c2C(c2ccc(O)cc2)c2c(n[nH]c2C)O3)cc1 (centres undefined)	52.1
COc1ccc(Nc2ncnc3c2C(c2cccc([N+](=O)[O-])c2)c2ccc4ccccc4c2O3)cc1 (centres undefined)	13
COc1ccc(Nc2ncnc3c2C(c2ccc([N+](=O)[O-])cc2)c2ccc4ccccc4c2O3)cc1 (centres undefined)	10.5
COc1ccc(Nc2ncnc3c2C(c2ccc(O)cc2)C2=C(CCCC2=O)O3)cc1 (centres undefined)	84.8
COc1ccc(Nc2ncnc3c2C(c2ccc([N+](=O)[O-])cc2)c2c(n[nH]c2C)O3)cc1 (centres undefined)	25.7

SMILES	inhibition at 100 µM [%]
COc1ccc(Nc2ncnc3c2C(c2ccccc2)c2c(n[nH]c2C)O3)cc1 (centres undefined)	38.1
COc1ccc(Nc2ncnc3c2C(c2cccc(Cl)c2)c2c(n[nH]c2C)O3)cc1 (centres undefined)	33.1
COc1ccc(Nc2ncnc3c2C(c2cc(OC)c(OC)c(OC)c2)C2=C(CCCC2=O)O3)cc1 (centres undefined)	76.8
COc1ccc(Nc2ncnc3c2C(c2ccc(OC)c(OC)c2)c2c(n[nH]c2C)O3)cc1 (centres undefined)	63.7
COc1ccc(Nc2ncnc3c2C(c2ccc(OC)c(OC)c2)c2ccc4ccccc4c2O3)cc1 (centres undefined)	39.7
COc1ccc(Nc2ncnc3c2C(c2ccc(O)c(OC)c2)c2c(c(=O)oc4ccccc24)O3)cc1 (centres undefined)	92.3
COc1ccc(Nc2ncnc3c2C(c2ccc(O)c(OC)c2)C2=C(CCCC2=O)O3)cc1 (centres undefined)	95
COc1ccc(Nc2ncnc3c2C(c2cccc(O)c2)c2c(ccc4ccccc24)O3)cc1 (centres undefined)	28.1
COc1ccc(Nc2ncnc3c2C(c2ccc(F)cc2)c2ccc4ccccc4c2O3)cc1 (centres undefined)	19
COc1ccc(Nc2ncnc3c2C(c2ccc(Br)cc2)c2ccc4ccccc4c2O3)cc1 (centres undefined)	15.5
COc1ccc(Nc2ncnc3c2C(c2cc(OC)c(OC)c(OC)c2)c2c(ccc4ccccc24)O3)cc1 (centres undefined)	25.8
COc1ccc(Nc2ncnc3c2C(c2ccc([N+](=O)[O-])cc2)c2c(c(=O)oc4ccccc24)O3)cc1 (centres undefined)	61.9
COc1ccc(Nc2ncnc3c2C(c2cccs2)c2c(c(=O)oc4ccccc24)O3)cc1 (centres undefined)	58.8
COc1ccc(Nc2ncnc3c2C(c2ccccc2)c2c(ccc4ccccc24)O3)cc1 (centres undefined)	20.2
COc1ccc(Nc2ncnc3c2C(c2ccc(Cl)cc2)C2=C(CCCC2=O)O3)cc1 (centres undefined)	69.4
COc1ccc(Nc2ncnc3c2C(c2ccccc2)C2=C(CCCC2=O)O3)cc1 (centres undefined)	75.4
COc1ccc(Nc2ncnc3c2C(c2ccc(Br)cc2)c2c(ccc4ccccc24)O3)cc1 (centres undefined)	16.5
COc1ccc(Nc2ncnc3c2C(c2cccc(C)c2)c2ccc4ccccc4c2O3)cc1 (centres undefined)	21.8

Target: T1, Xanthine dehydrogenase/oxidase
Assay: Inhibition of bovine xanthine oxidase assessed as reduction in uric acid formation at 1 uM using xanthine as substrate pretreated for 5 mins followed by substrate addition measured by UV-vis spectrophotometric method relative to control
Conditions: cattle

SMILES	inhibition at 1 µM [%]
COc1ccc(Nc2ncnc3c2C(c2cccc(C)c2)c2c(c(=O)oc4ccccc24)O3)cc1 (centres undefined)	28.7
COc1ccc(Nc2ncnc3c2C(c2ccc(O)c(O)c2)C2=C(CCCC2=O)O3)cc1 (centres undefined)	27.3
COc1ccc(Nc2ncnc3c2C(c2ccc(OC)cc2)c2c(n[nH]c2C)O3)cc1 (centres undefined)	20.1
COc1ccc(Nc2ncnc3c2C(c2cc(OC)c(OC)c(OC)c2)c2c(c(=O)oc4ccccc24)O3)cc1 (centres undefined)	26.2
COc1ccc(Nc2ncnc3c2C(c2cccc([N+](=O)[O-])c2)c2c(c(=O)oc4ccccc24)O3)cc1 (centres undefined)	20.2
COc1ccc(Nc2ncnc3c2C(c2cccc([N+](=O)[O-])c2)C2=C(CCCC2=O)O3)cc1 (centres undefined)	21.9
COc1ccc(Nc2ncnc3c2C(c2ccc(O)cc2)C2=C(CCCC2=O)O3)cc1 (centres undefined)	30.5
COc1ccc(Nc2ncnc3c2C(c2cc(OC)c(OC)c(OC)c2)C2=C(CCCC2=O)O3)cc1 (centres undefined)	27.4
COc1ccc(Nc2ncnc3c2C(c2ccc(OC)c(OC)c2)c2c(n[nH]c2C)O3)cc1 (centres undefined)	23.6
COc1ccc(Nc2ncnc3c2C(c2ccc(O)c(OC)c2)c2c(c(=O)oc4ccccc24)O3)cc1 (centres undefined)	33.2
COc1ccc(Nc2ncnc3c2C(c2ccc(O)c(OC)c2)C2=C(CCCC2=O)O3)cc1 (centres undefined)	30.3
COc1ccc(Nc2ncnc3c2C(c2ccc([N+](=O)[O-])cc2)c2c(c(=O)oc4ccccc24)O3)cc1 (centres undefined)	22.2
COc1ccc(Nc2ncnc3c2C(c2ccc(Cl)cc2)C2=C(CCCC2=O)O3)cc1 (centres undefined)	22
COc1ccc(Nc2ncnc3c2C(c2ccccc2)C2=C(CCCC2=O)O3)cc1 (centres undefined)	29.1

Target: T1, Xanthine dehydrogenase/oxidase
Assay: Inhibition of bovine xanthine oxidase assessed as reduction in uric acid formation using xanthine as substrate pretreated for 5 mins followed by substrate addition measured by UV-vis spectrophotometric method
Conditions: not given

SMILES	IC50 [µM]
COc1ccc(Nc2ncnc3c2C(c2cccc(C)c2)c2c(c(=O)oc4ccccc24)O3)cc1 (centres undefined)	37
COc1ccc(Nc2ncnc3c2C(c2ccc(O)c(O)c2)C2=C(CCCC2=O)O3)cc1 (centres undefined)	8.5
COc1ccc(Nc2ncnc3c2C(c2ccc(O)c(OC)c2)c2c(n[nH]c2C)O3)cc1 (centres undefined)	60
COc1ccc(Nc2ncnc3c2C(c2cc(OC)c(OC)c(OC)c2)c2c(c(=O)oc4ccccc24)O3)cc1 (centres undefined)	42
COc1ccc(Nc2ncnc3c2C(c2cccc([N+](=O)[O-])c2)c2c(c(=O)oc4ccccc24)O3)cc1 (centres undefined)	65
COc1ccc(Nc2ncnc3c2C(c2cccc([N+](=O)[O-])c2)C2=C(CCCC2=O)O3)cc1 (centres undefined)	60
COc1ccc(Nc2ncnc3c2C(c2ccc(O)cc2)C2=C(CCCC2=O)O3)cc1 (centres undefined)	28
COc1ccc(Nc2ncnc3c2C(c2cc(OC)c(OC)c(OC)c2)C2=C(CCCC2=O)O3)cc1 (centres undefined)	40
COc1ccc(Nc2ncnc3c2C(c2ccc(OC)c(OC)c2)c2c(n[nH]c2C)O3)cc1 (centres undefined)	64
COc1ccc(Nc2ncnc3c2C(c2ccc(O)c(OC)c2)c2c(c(=O)oc4ccccc24)O3)cc1 (centres undefined)	15
COc1ccc(Nc2ncnc3c2C(c2ccc(O)c(OC)c2)C2=C(CCCC2=O)O3)cc1 (centres undefined)	7
COc1ccc(Nc2ncnc3c2C(c2ccc([N+](=O)[O-])cc2)c2c(c(=O)oc4ccccc24)O3)cc1 (centres undefined)	64
COc1ccc(Nc2ncnc3c2C(c2ccc(Cl)cc2)C2=C(CCCC2=O)O3)cc1 (centres undefined)	55
COc1ccc(Nc2ncnc3c2C(c2ccccc2)C2=C(CCCC2=O)O3)cc1 (centres undefined)	40

Target: T1, Xanthine dehydrogenase/oxidase
Assay: Inhibition of bovine xanthine oxidase assessed as reduction in uric acid formation at 10 uM using xanthine as substrate pretreated for 5 mins followed by substrate addition measured by UV-vis spectrophotometric method relative to control
Conditions: cattle

SMILES	inhibition at 10 µM [%]
COc1ccc(Nc2ncnc3c2C(c2cccc(C)c2)c2c(c(=O)oc4ccccc24)O3)cc1 (centres undefined)	39.1
COc1ccc(Nc2ncnc3c2C(c2ccc(O)c(O)c2)C2=C(CCCC2=O)O3)cc1 (centres undefined)	56.5
COc1ccc(Nc2ncnc3c2C(c2ccc(OC)cc2)c2c(n[nH]c2C)O3)cc1 (centres undefined)	29.3
COc1ccc(Nc2ncnc3c2C(c2ccc(O)c(OC)c2)c2c(n[nH]c2C)O3)cc1 (centres undefined)	32.5
COc1ccc(Nc2ncnc3c2C(c2cc(OC)c(OC)c(OC)c2)c2c(c(=O)oc4ccccc24)O3)cc1 (centres undefined)	37.2
COc1ccc(Nc2ncnc3c2C(c2cccc([N+](=O)[O-])c2)c2c(c(=O)oc4ccccc24)O3)cc1 (centres undefined)	31.5
COc1ccc(Nc2ncnc3c2C(c2cccc([N+](=O)[O-])c2)C2=C(CCCC2=O)O3)cc1 (centres undefined)	32.7
COc1ccc(Nc2ncnc3c2C(c2ccc(O)cc2)C2=C(CCCC2=O)O3)cc1 (centres undefined)	42.4
COc1ccc(Nc2ncnc3c2C(c2cc(OC)c(OC)c(OC)c2)C2=C(CCCC2=O)O3)cc1 (centres undefined)	38
COc1ccc(Nc2ncnc3c2C(c2ccc(OC)c(OC)c2)c2c(n[nH]c2C)O3)cc1 (centres undefined)	31.4
COc1ccc(Nc2ncnc3c2C(c2ccc(O)c(OC)c2)c2c(c(=O)oc4ccccc24)O3)cc1 (centres undefined)	47.2
COc1ccc(Nc2ncnc3c2C(c2ccc(O)c(OC)c2)C2=C(CCCC2=O)O3)cc1 (centres undefined)	60
COc1ccc(Nc2ncnc3c2C(c2ccc([N+](=O)[O-])cc2)c2c(c(=O)oc4ccccc24)O3)cc1 (centres undefined)	30.5
COc1ccc(Nc2ncnc3c2C(c2ccc(Cl)cc2)C2=C(CCCC2=O)O3)cc1 (centres undefined)	34.5
COc1ccc(Nc2ncnc3c2C(c2ccccc2)C2=C(CCCC2=O)O3)cc1 (centres undefined)	37.5
